From patent publication US4563474A, “Phthalimides and thienopyrrols as drugs” (BASF Aktiengesellschaft, priority 1982, dated 1986)
Like-named read-outs stand apart in the source and are kept apart here.

What was measured:
[1] = tested on: orientation hypermotility; assay: Sedative action: reduction of orientation hypermotility induced by a new environment; type: in vivo, female NMRI mice; details: for ED50: po, 0.5 h, read-out: Sedative action (mouse) ED50
Method: The test substances were administered orally to groups comprising three female NMRI mice each. The orientation hypermotility induced by a new environment is determined photoelectrically, 30 minutes after administration of the substance, over a period of 30 minutes.
The ED50, ie. the dose which produces 50% reduction in orientation hypermotility compared to untreated control animals, was determined.

[2] = tested on: reserpine-induced hypothermia; assay: Antidepressant action: inhibition of reserpine-induced hypothermia; type: in vivo, male mice (Swiss); details: for ED50: po, read-out: Antidepressant action (mouse) ED50
Method: Antidepressants produce a dose-dependent inhibition of this hypothermia. The test substances were administered orally 60 minutes before reserpine.

[3] = mouse, administered orally, 30 min after administration, over 30 min, 50% reduction in orientation hypermotility
[4] = mouse, administered orally 60 minutes before reserpine (2.15 mg/kg s.c.), 50% inhibition of hypothermia

Row | SMILES | ED50 [1, 3] [mg/kg] | ED50 [2, 4] [mg/kg] | ED50 ([1]; Mus musculus) [mg/kg] | ED50 ([2]; Mus musculus) [mg/kg] | weak suppressant effect on the central nervous system (in words) ([1]; known, and also found in the test for sedative action) | antidepressant action (in words) ([2]; up to the maximum test dose of 2,150 mg/kg, administered orally)
1 | CC(=CC#N)CN1C(=O)c2ccccc2S1(=O)=O [Example 1, 3-(2,3-dihydro-1,1-dioxido-3-oxo-1,2-benzisothiazol-2-yl)-1-cyano-2-methylprop-1-ene] | 50 | 3.5 |  |  |  | 
2 | CC(=CC#N)CN1C(=O)c2c(Cl)cccc2S1(=O)=O [Example 4, 3-(2,3-Dihydro-4-chloro-1,1-dioxido-3-oxo-1,2-benzisothiazol-2-yl)-1-cyano-2-methylprop-1-ene] | 52 | 3.1 |  |  |  | 
3 | CC(=CC#N)CN1C(=O)c2cc(Cl)ccc2S1(=O)=O [Example 6, 3-(2,3-Dihydro-5-chloro-1,1-dioxido-3-oxo-1,2-benzisothiazol-2-yl)-1-cyano-2-methylprop-1-ene] | 100 | 1.1 |  |  |  | 
4 | CC(=CC#N)CN1C(=O)c2ccccc2C1=O [Example 11, 3-(Phthalimid-2-yl)-1-cyano-2-methylprop-1-ene] | 68 | 18.9 |  |  |  | 
5 | CC(=CC#N)CN1Cc2ccccc2C1=O [Example 12, 3-(Phthalimidin-2-yl)-1-cyano-2-methylprop-1-ene] | 49 | 11.4 |  |  |  | 
6 | CC(=CC#N)CCN1C(=O)c2ccccc2C1=O [Example 18, 4-(Phthalimid-2-yl)-1-cyano-2-methylbut-1-ene] | 29 | 4.5 |  |  |  | 
7 | CN(C)CCCN1c2ccccc2CCc2ccccc21 [Imipramine, reference compound] |  |  | ~100 | 6.8 |  | 
8 | O=C1NCCCC1N1C(=O)c2ccccc2S1(=O)=O (stereo not drawn) [Supidimide, 3-(2,3-dihydro-1,1-dioxido-3-oxo-1,2-benzisothiazol-2-yl)-2-oxopiperidine, reference compound] | 277 | 2150 |  |  | weak suppressant effect on the central nervous system | completely absent
